For the assay, the system named is Pituitary cells from female Sprague-Dawley rats. Kind of assay: LH and FSH release from rat pituitary cell culture. It counts as cell-based. How it is done:
Pituitary cells from female Sprague-Dawley rats were established in cell culture by the method of K. Nikolics et al., "Peptides" 2: 65-73 (1981). 1 ml of about 1×10^-8 molar concentration of GAP or LHRH in medium 199 (a nutrient medium) was added to a four day pituitary cell culture per 5×10^5 cells. After 4 hours incubation at 37° C. in 5 percent CO2 /95 percent air the cell culture supernatant fluids were assayed for release of LH and FSH.
The anterior pituitary cell culture from female Sprague-Dawley rats was prepared as described in Example 6. In FIG. 7A the indicated concentrations of GAP (open circles, 10^-11 M; open squares, 3×10^-11 M; closed circles 10^-10 M; open squares, triangle 10^-8 M) were incubated with 5×10^5 cells/ml medium in 24-well culture plates for the indicated time. Media were assayed for PRL and values were expressed in terms of rPRL-RP-2 reference protein (National Pituitary and Hormone Program). The points are means ± standard deviation of four parallel culture wells of which duplicate samples were assayed by RIA. Basal levels were determined from eight parallel wells. The curves shown represent data obtained in three to five independent cell cultures.

[1] abbreviates: 10^-8 M test sample, 4 hours incubation at 37° C., four day pituitary cell culture, supernatant.

Ends that are not written are not given here. Peptide text beside a SMILES is read from it.

With “DAENLIDSFQEIVKEVGQLAETQRFECTTHQPRSPLRDLKGALESLIEEETGQKKI [GAP]”, the “ED50 of stimulation of FSH secretion” value was ~0.5 nM.
For the compound `CC(C)C[C@H](NC(=O)[C@H](CC(=O)O)NC(=O)[C@H](CCCNC(=N)N)NC(=O)[C@H](CC(C)C)NC(=O)[C@@H]1CCCN1C(=O)[C@H](CO)NC(=O)[C@H](CCCNC(=N)N)NC(=O)[C@@H]1CCCN1C(=O)[C@H](CCC(N)=O)NC(=O)[C@H](Cc1c[nH]cn1)NC(=O)[C@@H](NC(=O)[C@@H](NC(=O)[C@@H](N)CS)[C@@H](C)O)[C@@H](C)O)C(=O)N[C@@H](CCCCN)C(=O)O` [CTP-core polypeptide of Example 4, NH2 -cys-thr-thr-his-gln-pro-arg-ser-pro-leu-arg-asp-leu-lys-COOH] (H-CTTHQPRSPLRDLK-OH), the “activity in LH and FSH release (in words)” value (rat pituitary cells) is “active in LH and FSH release, albeit at higher concentrations than required for GAP”.
Take `CC(C)C[C@H](NC(=O)CNC(=O)[C@H](Cc1ccc(O)cc1)NC(=O)[C@H](CO)NC(=O)[C@H](Cc1c[nH]c2ccccc12)NC(=O)[C@H](Cc1c[nH]cn1)NC(=O)[C@@H]1CCC(=O)N1)C(=O)N[C@@H](CCCNC(=N)N)C(=O)N1CCC[C@H]1C(=O)NCC(N)=O` [LHRH]: under setting [1], the “FSH (pg)/5 × 10^5 cells” value came to 11403 ± 350 pg/5 × 10^5 cells and the “LH (pg)/5 × 10^5 cells” value is 30503 ± 3342 pg/5 × 10^5 cells. Moreover, the EC50 (rat anterior pituitary cells, read-out: Half-maximal stimulation of LH release) is 0.8 nM.

The values are drawn from patent US5075224A, “Prepro-LHRH C-terminal peptide DNA” (Genentech, Inc., priority 1991, dated 1991).
